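In this assay, cells in 96-well plates receive the compound at five concentrations for 48 hours. Endpoints are linearly interpolated between the surrounding concentrations. GI50: concentration for 50% inhibition of growth. At the TGI there is no net growth.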
Tests used:
Assay in all cases: NCI tumour cell line growth inhibition, 48 h
SK-MEL-2 melanoma = system: SK-MEL-2 melanoma
OVCAR-8 ovarian = system: OVCAR-8 ovarian
HL-60(TB) leukemia = system: HL-60(TB) leukemia
SN12C renal = system: SN12C renal
DU-145 prostate = system: DU-145 prostate
MCF7 breast = system: MCF7 breast
TK-10 renal = system: TK-10 renal
COLO 205 colon = system: COLO 205 colon
NCI-H226 lung = system: NCI-H226 lung
SK-MEL-5 melanoma = system: SK-MEL-5 melanoma
ACHN renal = system: ACHN renal
SF-539 CNS = system: SF-539 CNS
SNB-75 CNS = system: SNB-75 CNS
IGROV1 ovarian = system: IGROV1 ovarian
UO-31 renal = system: UO-31 renal
A549 NSCLC = system: A549 NSCLC
SF-268 CNS = system: SF-268 CNS
SW-620 colon = system: SW-620 colon
HOP-62 NSCLC = system: HOP-62 NSCLC
OVCAR-4 ovarian = system: OVCAR-4 ovarian
T-47D breast = system: T-47D breast
KM12 colon = system: KM12 colon
SK-OV-3 ovarian = system: SK-OV-3 ovarian
PC-3 prostate = system: PC-3 prostate
SF-295 CNS = system: SF-295 CNS
HT29 colon = system: HT29 colon
OVCAR-5 ovarian = system: OVCAR-5 ovarian
BT-549 breast = system: BT-549 breast
NCI-H522 lung = system: NCI-H522 lung
786-0 renal = system: 786-0 renal
HS 578T breast = system: HS 578T breast
UACC-62 melanoma = system: UACC-62 melanoma
NCI-H460 lung = system: NCI-H460 lung
CCRF-CEM leukemia = system: CCRF-CEM leukemia
NCI/ADR-RES ovarian = system: NCI/ADR-RES ovarian
RPMI-8226 leukemia = system: RPMI-8226 leukemia
MALME-3M melanoma = system: MALME-3M melanoma
NCI-H23 lung = system: NCI-H23 lung
U251 CNS = system: U251 CNS
SK-MEL-28 melanoma = system: SK-MEL-28 melanoma
SNB-19 CNS = system: SNB-19 CNS
OVCAR-3 ovarian = system: OVCAR-3 ovarian
EKVX NSCLC = system: EKVX NSCLC
SR leukemia = system: SR leukemia
MDA-MB-435 = system: MDA-MB-435
MDA-MB-231 breast = system: MDA-MB-231 breast
HCC-2998 colon = system: HCC-2998 colon
HOP-92 NSCLC = system: HOP-92 NSCLC
MOLT-4 leukemia = system: MOLT-4 leukemia
A498 renal = system: A498 renal
HCT-15 colon = system: HCT-15 colon
UACC-257 melanoma = system: UACC-257 melanoma
K-562 leukemia = system: K-562 leukemia
LOX IMVI melanoma = system: LOX IMVI melanoma
M14 melanoma = system: M14 melanoma
HCT-116 colon = system: HCT-116 colon
CAKI-1 renal = system: CAKI-1 renal

COc1ccc2sc(NC(=O)CCCCCCNC(=O)C(O)(O)C(F)(F)F)nc2c1
GI50 (SK-MEL-2 melanoma): 1.06 µM | TGI (SK-MEL-2 melanoma): 5.2 µM | GI50 (OVCAR-8 ovarian): 0.989 µM | TGI (OVCAR-8 ovarian): 6.58 µM | GI50 (HL-60(TB) leukemia): 1.06 µM | TGI (HL-60(TB) leukemia): > 30.3 µM | GI50 (SN12C renal): 2.31 µM | TGI (SN12C renal): 19 µM | GI50 (DU-145 prostate): 1.01 µM | TGI (DU-145 prostate): 14 µM | GI50 (MCF7 breast): 1.75 µM | TGI (MCF7 breast): > 30.3 µM | GI50 (TK-10 renal): 0.736 µM | TGI (TK-10 renal): > 30.3 µM | GI50 (COLO 205 colon): 0.92 µM | TGI (COLO 205 colon): 3.65 µM | GI50 (NCI-H226 lung): 4.94 µM | TGI (NCI-H226 lung): 22.6 µM | GI50 (SK-MEL-5 melanoma): 1.42 µM | TGI (SK-MEL-5 melanoma): 4.87 µM | GI50 (ACHN renal): 1.18 µM | TGI (ACHN renal): 6.58 µM | GI50 (SF-539 CNS): 2.05 µM | TGI (SF-539 CNS): > 30.3 µM | GI50 (SNB-75 CNS): 0.912 µM | TGI (SNB-75 CNS): > 30.3 µM | GI50 (IGROV1 ovarian): 1.83 µM | TGI (IGROV1 ovarian): 7.73 µM | GI50 (UO-31 renal): 1.12 µM | TGI (UO-31 renal): 5.7 µM | GI50 (A549 NSCLC): 1.86 µM | TGI (A549 NSCLC): 18.4 µM | GI50 (SF-268 CNS): 1.48 µM | TGI (SF-268 CNS): 8.21 µM | GI50 (SW-620 colon): 0.531 µM | TGI (SW-620 colon): 1.85 µM | GI50 (HOP-62 NSCLC): 1.33 µM | TGI (HOP-62 NSCLC): > 30.3 µM | GI50 (OVCAR-4 ovarian): 2.8 µM | TGI (OVCAR-4 ovarian): > 30.3 µM | GI50 (T-47D breast): 0.879 µM | TGI (T-47D breast): 3.02 µM | GI50 (KM12 colon): 1.29 µM | TGI (KM12 colon): 7.4 µM | GI50 (SK-OV-3 ovarian): 0.86 µM | TGI (SK-OV-3 ovarian): 2.31 µM | GI50 (PC-3 prostate): 1.72 µM | TGI (PC-3 prostate): > 30.3 µM | GI50 (SF-295 CNS): 1.07 µM | TGI (SF-295 CNS): 3.41 µM | GI50 (HT29 colon): 0.912 µM | TGI (HT29 colon): > 30.3 µM | GI50 (OVCAR-5 ovarian): 0.912 µM | TGI (OVCAR-5 ovarian): 6.26 µM | GI50 (BT-549 breast): 1.5 µM | TGI (BT-549 breast): 18.9 µM | GI50 (NCI-H522 lung): 0.919 µM | TGI (NCI-H522 lung): 4.61 µM | GI50 (786-0 renal): 1.08 µM | TGI (786-0 renal): > 30.3 µM | GI50 (HS 578T breast): 0.969 µM | TGI (HS 578T breast): 9.91 µM | GI50 (UACC-62 melanoma): 0.828 µM | TGI (UACC-62 melanoma): 3.41 µM | GI50 (NCI-H460 lung): 0.877 µM | TGI (NCI-H460 lung): 13.5 µM | GI50 (CCRF-CEM leukemia): 1.34 µM | TGI (CCRF-CEM leukemia): > 30.3 µM | GI50 (NCI/ADR-RES ovarian): 2.07 µM | TGI (NCI/ADR-RES ovarian): 18.5 µM | GI50 (RPMI-8226 leukemia): 0.988 µM | TGI (RPMI-8226 leukemia): > 30.3 µM | GI50 (MALME-3M melanoma): 1.04 µM | TGI (MALME-3M melanoma): 12 µM | GI50 (NCI-H23 lung): 2.83 µM | TGI (NCI-H23 lung): 21.7 µM | GI50 (U251 CNS): 1.04 µM | TGI (U251 CNS): 5.27 µM | GI50 (SK-MEL-28 melanoma): 1.16 µM | TGI (SK-MEL-28 melanoma): 7.95 µM | GI50 (SNB-19 CNS): 2.47 µM | TGI (SNB-19 CNS): 14.7 µM | GI50 (OVCAR-3 ovarian): 0.696 µM | TGI (OVCAR-3 ovarian): 2.84 µM | GI50 (EKVX NSCLC): 2.33 µM | TGI (EKVX NSCLC): > 30.3 µM | GI50 (SR leukemia): 0.738 µM | TGI (SR leukemia): > 30.3 µM | GI50 (MDA-MB-435): 1.03 µM | TGI (MDA-MB-435): 6 µM | GI50 (MDA-MB-231 breast): 0.68 µM | TGI (MDA-MB-231 breast): 2.24 µM | GI50 (HCC-2998 colon): 2.15 µM | TGI (HCC-2998 colon): 7.56 µM | GI50 (HOP-92 NSCLC): 0.649 µM | TGI (HOP-92 NSCLC): 2.47 µM | GI50 (MOLT-4 leukemia): 1.07 µM | TGI (MOLT-4 leukemia): > 30.3 µM | GI50 (A498 renal): 0.901 µM | TGI (A498 renal): 6.47 µM | GI50 (HCT-15 colon): 3.57 µM | TGI (HCT-15 colon): 10.1 µM | GI50 (UACC-257 melanoma): 1.49 µM | TGI (UACC-257 melanoma): 26.8 µM | GI50 (K-562 leukemia): 0.882 µM | TGI (K-562 leukemia): > 30.3 µM | GI50 (LOX IMVI melanoma): 1.38 µM | TGI (LOX IMVI melanoma): 5.42 µM | GI50 (M14 melanoma): 2.07 µM | TGI (M14 melanoma): > 30.3 µM | GI50 (HCT-116 colon): 0.754 µM | TGI (HCT-116 colon): > 30.3 µM | GI50 (CAKI-1 renal): 1.83 µM | TGI (CAKI-1 renal): 14.7 µM

Reference: PubChem BioAssay (NCI)
